The test deals with HUVEC (normal human umbilical vein endothelial cells). As to the kind of experiment: VEGF-induced HUVEC proliferation: cell proliferation inhibitory action test.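 Note: each well holds 100 µL cell suspension before compound addition.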 It is filed as cell-based. Particulars: 72 h, 5 μL of 20 μg/mL test compound solution per well, WST-8 absorbance at 450 nm three days after VEGF addition, read-out: Cell proliferation inhibition rate (%). As to the method: A cell proliferation inhibitory action test of the compounds of the present invention was performed using a VEGF-induced HUVEC proliferation evaluation system (HUVEC stands for normal human umbilical vein endothelial cells), which is one of the widely-used methods of evaluating in vitro angiogenesis inhibitory effects of drugs. As one of the widely-used methods of evaluating angiogenesis inhibitory effects of drugs, a cell proliferation inhibitory action test using a VEGF-induced HUVEC proliferation reaction evaluation system has been reported in Cancer Res., 59, 99-106 (1999). According to the method described in the above-mentioned document, a cell proliferation inhibitory action test of the compounds of the present invention was performed, the cell proliferation inhibition rate was calculated, and the angiogenesis inhibitory effect of each of the compounds of the present invention was evaluated using the obtained rate as an index. Each test compound was dissolved in dimethyl sulfoxide (hereinafter abbreviated as DMSO), and the obtained solution was diluted with a commercially available phosphoric acid buffer solution (hereinafter abbreviated as PBS), whereby a 20 μg/mL test compound solution was prepared. HUVEC was suspended in a 0.5% fetal bovine serum (hereinafter abbreviated as FBS)-containing F12K medium, whereby a 2×10^4 cells/mL HUVEC suspension was prepared. VEGF was dissolved in 0.1% bovine serum albumin-containing PBS, and the obtained solution was diluted with the 0.5% FBS-containing F12K medium, whereby a 400 ng/mL VEGF solution was prepared. • 1) The HUVEC suspension was inoculated in an amount of 100 μL into each well of a 96-well plate coated with type I collagen (2×10^3 cells per well). • 2) One day after the inoculation, the test compound solution was added in an amount of 5 μL per well. • 3) One hour after the addition of the test compound solution, the VEGF solution was added in an amount of 5 μL per well. • 4) Three days after the addition of the VEGF solution, WST-8 assay kit (Dojin Chemical Co., Ltd.) was added in an amount of 10 μL per well. • 5) After 3 hours, the above-mentioned plate was attached to an absorptiometer (Multilabel Counter ARVO), and an absorbance at 450 nm of each well suspension (hereinafter referred to as test compound suspension) was measured. • 6) A test was carried out in the same manner as in the above 1) to 5) except that 1.0% DMSO was used instead of the test compound solution. The result was used as a control. Incubation was carried out under conditions of 37° C., 5% carbon dioxide and […] in an incubator throughout the above-mentioned test steps. The cell proliferation inhibition rate (%), which was used as an index of an angiogenesis inhibitory effect, was calculated according to the following calculation equation. Cell proliferation inhibition rate (%)=100−{(Absorbance of test compound suspension−A)/(absorbance of control−A)}×100 (Calculation Equation) A: Absorbance of only cell suspension (cell+medium) (Test Results and Discussion)

Structures can show the parent of a compound that is named as a salt.

Regarding `Cc1cc(C)cc(NC(=O)c2cccnc2SCc2ccnc(N3CCN(C)CC3)c2)c1` [Compound 1-1, N-(3,5-Dimethylphenyl)-2-[2-(4-methylpiperazin-1-yl)pyridin-4-ylmethylthio]pyridine-3-carboxamide], the inhibition at 20 µg/mL (stock) came to 97%.
The value for `Cc1cc(C)cc(NC(=O)c2cccnc2SCc2ccnc(NC3CC3)c2)c1` [Compound 1-2, 2-(2-Cyclopropylaminopyridin-4-ylmethylthio)-N-(3,5-dimethylphenyl)pyridine-3-carboxamide] was 100%.
The value for `Cc1cc(C)cc(NC(=O)c2cccnc2SCc2ccnc(N(C)CCN(C)C)c2)c1` [Compound 1-3, 2-[2-(N-(2-Dimethylaminoethyl)-N-methylamino)pyridin-4-ylmethylthio]-N-(3,5-dimethylphenyl)pyridine-3-carboxamide] was 99%; that for `Cc1cc(C)cc(NC(=O)c2cccnc2SCc2ccnc(N3CCCCC3)c2)c1` [Compound 1-5, N-(3,5-Dimethylphenyl)-2-[2-(piperidin-1-yl)pyridin-4-ylmethylthio]pyridine-3-carboxamide] was 90%; that for `O=C(Nc1ccc2c(c1)CCC2)c1cccnc1SCc1ccnc(N2CCOCC2)c1` [Compound 1-10, N-(Indan-5-yl)-2-(2-morpholinopyridin-4-ylmethylthio)pyridine-3-carboxamide] was 94%.
As to `CC(=O)N1CCN(c2cc(CSc3ncccc3C(=O)Nc3ccc4c(c3)CCC4)ccn2)CC1` [Compound 1-11, 2-[2-(4-Acetylpiperazin-1-yl)pyridin-4-ylmethylthio]-N-(indan-5-yl)-pyridine-3-carboxamide], the inhibition at 20 µg/mL (stock) is 96%.
In the case of `CCCCCNc1cc(CSc2ncccc2C(=O)Nc2cc(C)cc(C)c2)ccn1` [Compound 1-20, N-(3,5-Dimethylphenyl)-2-(2-n-pentylaminopyridin-4-ylmethylthio)pyridine-3-carboxamide], the inhibition at 20 µg/mL (stock) was 100%.
Regarding `Cc1cc(C)cc(NC(=O)c2cccnc2SCc2ccnc(NC(=O)OC(C)(C)C)c2)c1` [Compound 2-1, 2-(2-tert-Butoxycarbonylaminopyridin-4-ylmethylthio)-N-(3,5-dimethylphenyl)pyridine-3-carboxamide], the inhibition at 20 µg/mL (stock) amounted to 100%.
The value for `CC(C)c1cccc(NC(=O)c2cccnc2SCc2ccnc(NC(=O)OC(C)(C)C)c2)c1` [Compound 2-2, 2-(2-tert-Butoxycarbonylaminopyridin-4-ylmethylthio)-N-(3-isopropylphenyl)pyridine-3-carboxamide] was 100%; that for `CC(C)(C)OC(=O)Nc1cc(CSc2ncccc2C(=O)Nc2ccc3c(c2)CCC3)ccn1` [Compound 2-3, 2-(2-tert-Butoxycarbonylaminopyridin-4-ylmethylthio)-N-(indan-5-yl)pyridine-3-carboxamide] was 100%.
On to `CC(C)(C)OC(=O)Nc1cc(CSc2ncccc2C(=O)Nc2ccc(OC(F)(F)F)cc2)ccn1` [Compound 2-4, 2-(2-tert-Butoxycarbonylaminopyridin-4-ylmethylthio)-N-(4-trifluoromethoxyphenyl)pyridine-3-carboxamide], for which the inhibition at 20 µg/mL (stock) came to 99%.
Next, `CC(C)(C)OC(=O)Nc1cc(CSc2ncccc2C(=O)Nc2ccc(C(C)(C)C)cc2)ccn1` [Compound 2-5, 2-(2-tert-Butoxycarbonylaminopyridin-4-ylmethylthio)-N-(4-tert-butylphenyl)pyridine-3-carboxamide]: 95%; `CC(C)(C)OC(=O)Nc1cc(CSc2ncccc2C(=O)Nc2ccc3cn[nH]c3c2)ccn1` [Compound 2-6, 2-(2-tert-Butoxycarbonylaminopyridin-4-ylmethylthio)-N-(1H-indazol-6-yl)pyridine-3-carboxamide]: 100%.
The value for `Cc1cc(C)cc(NC(=O)c2cccnc2SCc2ccnc(N(C)C(=O)OC(C)(C)C)c2)c1` [Compound 2-7, 2-[2-(N-tert-Butoxycarbonyl-N-methylamino)pyridin-4-ylmethylthio]-N-(3,5-dimethylphenyl)pyridine-3-carboxamide] was 52%.
Next, `Cc1cc(C)cc(NC(=O)c2cccnc2SCc2ccnc(Nc3ncc(C#N)s3)c2)c1` [Compound 2-24, 2-[2-(5-Cyanothiazol-2-ylamino)pyridin-4-ylmethylthio]-N-(3,5-dimethylphenyl)pyridine-3-carboxamide]: 88%.
With `Nc1cc(CSc2ncccc2C(=O)Nc2ccc3c(c2)CCC3)ccn1` [Compound 3-3, 2-(2-Aminopyridin-4-ylmethylthio)-N-(indan-5-yl)pyridine-3-carboxamide monohydrochloride], the inhibition at 20 µg/mL (stock) is 100%.
The value for `CC(C)(C)c1ccc(NC(=O)c2cccnc2SCc2ccnc(N)c2)cc1` [Compound 3-4, 2-(2-Aminopyridin-4-ylmethylthio)-N-(4-tert-butylphenyl)pyridine-3-carboxamide monohydrochloride] was 100%.
The value for `Nc1cc(CSc2ncccc2C(=O)Nc2ccc3cn[nH]c3c2)ccn1` [Compound 3-5, 2-(2-Aminopyridin-4-ylmethylthio)-N-(1H-indazol-6-yl)pyridine-3-carboxamide monohydrochloride] was 96%; that for `CNc1cc(CSc2ncccc2C(=O)Nc2ccc3c(c2)CCC3)ccn1` [Compound 3-7, N-(Indan-5-yl)-2-(2-methylaminopyridin-4-ylmethylthio)pyridine-3-carboxamide monohydrochloride] was 96%.
Next, `Nc1cc(CSc2ncccc2C(=O)Nc2ccc(Cl)cc2)ccn1` [Compound 3-9, 2-(2-Aminopyridin-4-ylmethylthio)-N-(4-chlorophenyl)pyridine-3-carboxamide monohydrochloride]: 100%; `Nc1cc(CSc2ncccc2C(=O)Nc2cc3ccccc3cn2)ccn1` [Compound 3-13, 2-(2-Aminopyridin-4-ylmethylthio)-N-(isoquinolin-3-yl)pyridine-3-carboxamide]: 100%.
For `Nc1cc(CSc2ccccc2C(=O)Nc2ccc(Cl)cc2)ccn1` [Compound 3-21, 2-(2-Aminopyridin-4-ylmethylthio)-N-(4-chlorophenyl)benzamide monohydrochloride], the inhibition at 20 µg/mL (stock) worked out at 100%.
Next, `Cc1cc(C)cc(NC(=O)c2sccc2SCc2ccnc(N)c2)c1` [Compound 3-28, 3-(2-Aminopyridin-4-ylmethylthio)-N-(3,5-dimethylphenyl)thiophene-2-carboxamide]: 100%; `Cc1cc(C)cc(NC(=O)c2cccnc2SCc2ccnc(NC(=O)C(F)(F)F)c2)c1` [Compound 4-3, N-(3,5-Dimethylphenyl)-2-(2-trifluoroacetylaminopyridin-4-ylmethylthio)pyridine-3-carboxamide]: 100%; `Cc1cc(C)cc(NC(=O)c2cccnc2SCc2ccnc(NC(=O)C(C)C)c2)c1` [Compound 4-4, N-(3,5-Dimethylphenyl)-2-(2-isobutyrylaminopyridin-4-ylmethylthio)pyridine-3-carboxamide]: 100%.
For the molecule `Cc1cc(C)cc(NC(=O)c2cccnc2SCc2ccnc(NC(=O)C(C)(C)C)c2)c1` [Compound 4-5, N-(3,5-Dimethylphenyl)-2-(2-pivaloylaminopyridin-4-ylmethylthio)pyridine-3-carboxamide], the inhibition at 20 µg/mL (stock) was determined as 100%.
Turning to `Cc1cc(C)cc(NC(=O)c2cccnc2SCc2ccnc(NS(=O)(=O)C(F)(F)F)c2)c1` [Compound 4-6, N-(3,5-Dimethylphenyl)-2-(2-trifluoromethanesulfonylaminopyridin-4-ylmethylthio)pyridine-3-carboxamide], the inhibition at 20 µg/mL (stock) was determined as 100%.
`CC(=O)N(C)c1cc(CSc2ncccc2C(=O)Nc2cc(C)cc(C)c2)ccn1` [Compound 4-12, 2-[2-(N-Acetyl-N-methylamino)pyridin-4-ylmethylthio]-N-(3,5-dimethylphenyl)pyridine-3-carboxamide]: the inhibition at 20 µg/mL (stock) was found to be 100%.

These data come from patent US7544703B2, “Cyclic compound having 4-pyridylalkylthio group having substituted or unsubstituted amino group introduced therein” (Santen Pharmaceutical Co., Ltd., priority 2004, dated 2009).
